Calls of active or inactive are those of the source. The calls are words filed in the database; no cut-off is given here.
Assays:
Type in all cases: nucleic-acid assay
[1] = test system: DNA; experiment: Induction of DNA cleavage in Escherichia coli ER2272 pUC19 plasmid DNA assessed as decrease in supercoiled DNA at 0.1 to 50 uM in presence of Fe2+ at 10 uM after 60 mins by ethidium bromide staining based densitometric method relative to control; parameters: scale not given: the % may be the effect or the level left; details: dose 0.1-50 µM
[2] = test system: DNA; experiment: Induction of DNA cleavage in Escherichia coli ER2272 pUC19 plasmid DNA assessed as decrease in linear DNA at 0.1 to 50 uM in presence of Fe2+ at 30 to 50 uM after 60 mins by ethidium bromide staining based densitometric method; details: dose 0.1-50 µM
[3] = test system: DNA; experiment: Induction of DNA cleavage in Escherichia coli ER2272 pUC19 plasmid DNA assessed as decrease in relaxed circular DNA at 0.1 to 50 uM in presence of Fe2+ at 30 to 50 uM after 60 mins by ethidium bromide staining based densitometric method; details: dose 0.1-50 µM
[4] = test system: DNA; experiment: Induction of DNA cleavage in Escherichia coli ER2272 pUC19 plasmid DNA assessed as linear DNA at 0.1 to 50 uM in presence of Fe2+ at >5 uM uM after 60 mins by ethidium bromide staining based densitometric method; details: dose 0.1-50 µM
[5] = test system: dsDNA; experiment: Induction of DNA cleavage in pBluescript II SK+ DNA (unknown origin) assessed as cleaved in 5'-TTAATT-3' sequence at 5 uM in presence of Fe2+ at 30 uM after 10 mins by PAGE based DNA sequencing analysis
[6] = test system: DNA; experiment: Induction of DNA cleavage in Escherichia coli ER2272 pUC19 plasmid DNA assessed as decrease in relaxed circular DNA at 0.1 to 50 uM in presence of Fe2+ at 10 uM after 60 mins by ethidium bromide staining based densitometric method; details: dose 0.1-50 µM
[7] = test system: dsDNA; experiment: Induction of DNA cleavage in pBluescript II SK+ DNA (unknown origin) assessed as cleaved in 5'-AATTCCGGAA-3' sequence at 5 uM in presence of Fe2+ at 30 uM after 10 mins by PAGE based DNA sequencing analysis
[8] = test system: DNA; experiment: Induction of DNA cleavage in Escherichia coli ER2272 pUC19 plasmid DNA assessed as decrease in supercoiled DNA at 0.1 to 50 uM in presence of Fe2+ at 30 to 50 uM after 60 mins by ethidium bromide staining based densitometric method; details: dose 0.1-50 µM
[9] = test system: DNA; experiment: Induction of DNA cleavage in Escherichia coli ER2272 pUC19 plasmid DNA assessed as decrease in supercoiled DNA at 30 uM in presence of Fe2+ at 30 uM by ethidium bromide staining based densitometric method; details: time min <=15
[10] = test system: DNA; experiment: Induction of DNA cleavage in Escherichia coli ER2272 pUC19 plasmid DNA assessed as increase in relaxed circular DNA at 30 uM in presence of Fe2+ at 30 uM by ethidium bromide staining based densitometric method; details: time min <=15
[11] = test system: DNA; experiment: Induction of DNA cleavage in Escherichia coli ER2272 pUC19 plasmid DNA assessed as decrease in supercoiled DNA at 0.1 to 50 uM in presence of Fe2+ at 0.1 to 5 uM after 60 mins by ethidium bromide staining based densitometric method; details: dose 0.1-50 µM
[12] = test system: dsDNA; experiment: Induction of DNA cleavage in pBluescript II SK+ DNA (unknown origin) assessed as cleaved in 5'-CT-3' sequence at 30 uM in presence of Fe2+ at 30 uM after 30 mins by PAGE based DNA sequencing analysis
[13] = test system: DNA; experiment: Induction of DNA cleavage in Escherichia coli ER2272 pUC19 plasmid DNA assessed as linear DNA at 30 uM in presence of Fe2+ at 30 uM up to 15 mins by ethidium bromide staining based densitometric method; details: time min <=15
[14] = test system: DNA; experiment: Induction of DNA cleavage in Escherichia coli ER2272 pUC19 plasmid DNA assessed as decrease in supercoiled DNA at 15 uM in presence of Fe2+ at 30 uM after 1 min by ethidium bromide staining based densitometric method relative to control
[15] = test system: DNA; experiment: Induction of DNA cleavage in Escherichia coli ER2272 pUC19 plasmid DNA assessed as decrease in relaxed circular DNA at 15 uM in presence of Fe2+ at 30 uM <=15 min by ethidium bromide staining based densitometric method; details: time min <=15
[16] = test system: DNA; experiment: Induction of DNA cleavage in Escherichia coli ER2272 pUC19 plasmid DNA assessed as decrease in linear DNA at 15 uM in presence of Fe2+ at 30 uM <=15 min by ethidium bromide staining based densitometric method; details: time min <=15
[17] = test system: DNA; experiment: Induction of DNA cleavage in Escherichia coli ER2272 pUC19 plasmid DNA assessed as increase in relaxed circular DNA at 15 uM in presence of Fe2+ at 30 uM after 1 min by ethidium bromide staining based densitometric method
[18] = test system: DNA; experiment: Induction of DNA cleavage in Escherichia coli ER2272 pUC19 plasmid DNA assessed as increase in linear DNA at 15 uM in presence of Fe2+ at 30 uM after 1 min by ethidium bromide staining based densitometric method

Activity [1] | Activity [2] | Activity [3] | Activity [4] | Activity [5] | Activity [6] | Activity [7] | Activity [8] | Activity [9] | Activity [10] | Activity [11] | Activity [12] | Activity [13] | Activity [14] | Activity [15] | Activity [16] | Activity [17] | Activity [18] | SMILES
Active | Active | Active | Active | Active | Active | Active | Active |  |  |  |  |  |  |  |  |  |  | c1ccc(CN(Cc2ccccn2)[C@H]2CCCC[C@@H]2NCc2cccc3cc4cccc(CN[C@H]5CCCC[C@@H]5N(Cc5ccccn5)Cc5ccccn5)c4cc23)nc1
100% |  |  | Active |  |  |  |  | Active | Active | Active | Active | inactive |  |  |  |  |  | N[C@@H]1CCCC[C@H]1N(Cc1ccccn1)Cc1ccccn1
100% |  |  | Active |  |  |  |  |  |  | Active | Active |  |  |  |  |  |  | N[C@H]1CCCC[C@@H]1N(Cc1ccccn1)Cc1ccccn1
Active | Active | Active | Active | Active | Active | Active | Active |  |  |  |  |  | Active | Active | Active | Active | Active | c1ccc(CN(Cc2ccccn2)[C@@H]2CCCC[C@H]2NCc2cccc3cc4cccc(CN[C@@H]5CCCC[C@H]5N(Cc5ccccn5)Cc5ccccn5)c4cc23)nc1

— ChEMBL document CHEMBL4715894, “Design and synthesis of an anthranyl bridged optically active dinuclear iron(II)-ligand and evaluation of DNA-cleaving activity” (Bioorg Med Chem Lett, 2021)
